Measured values reported in PubChem BioAssay AID1963982 (Molecular Pharmacology Branch, DTP, NCI, 2024).

Test system: 313798-341-R-J2-PDC spheroids, viability
Assay: Anticancer human tumor 313798-341-R-J2-PDC patient-derived cervical squamous cell carcinoma cell line growth inhibition [PI3K]
Conditions: spheroids with HUVEC and MSC; for IC50: curve of first compound; for viability, T/C: stronger effect = lower value
Outline: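 Combination activity was assessed by viability in multicellular tumor spheroids carrying HUVEC and MSC components. Agents were tested with PI3K inhibitors from a Cmax-based top dose (or 10 microM) downward in half-log increments.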

[1] = second compound 0.00316 µM, first compound 0.0316 µM
[2] = second compound 0.00316 µM, first compound 0.1 µM
[3] = second compound 0.01 µM, first compound 0.0316 µM
[4] = second compound 0.01 µM, first compound 0.1 µM
[5] = second compound 0.0316 µM, first compound 0.0316 µM
[6] = second compound 0.0316 µM, first compound 0.1 µM
[7] = second compound 0.1 µM, first compound 0.0316 µM
[8] = second compound 0.1 µM, first compound 0.1 µM
[9] = second compound 0.316 µM, first compound 0.0316 µM
[10] = second compound 0.316 µM, first compound 0.1 µM
[11] = second compound 1 µM, first compound 0.0316 µM
[12] = second compound 1 µM, first compound 0.1 µM
[13] = second compound 0.00316 µM, first compound 0.316 µM
[14] = second compound 0.00316 µM, first compound 1 µM
[15] = second compound 0.00316 µM, first compound 3.16 µM
[16] = second compound 0.00316 µM, first compound 10 µM
[17] = second compound 0.01 µM, first compound 0.316 µM
[18] = second compound 0.01 µM, first compound 1 µM
[19] = second compound 0.01 µM, first compound 3.16 µM
[20] = second compound 0.01 µM, first compound 10 µM
[21] = second compound 0.0316 µM, first compound 0.316 µM
[22] = second compound 0.0316 µM, first compound 1 µM
[23] = second compound 0.0316 µM, first compound 3.16 µM
[24] = second compound 0.0316 µM, first compound 10 µM
[25] = second compound 0.1 µM, first compound 0.316 µM
[26] = second compound 0.1 µM, first compound 1 µM
[27] = second compound 0.1 µM, first compound 3.16 µM
[28] = second compound 0.1 µM, first compound 10 µM
[29] = second compound 0.316 µM, first compound 0.316 µM
[30] = second compound 0.316 µM, first compound 1 µM
[31] = second compound 0.316 µM, first compound 3.16 µM
[32] = second compound 0.316 µM, first compound 10 µM
[33] = second compound 1 µM, first compound 0.316 µM
[34] = second compound 1 µM, first compound 1 µM
[35] = second compound 1 µM, first compound 3.16 µM
[36] = second compound 1 µM, first compound 10 µM
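Also: spheroids exposed to compounds for seven days.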
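For viability, T/C in this document: 100% = DMSO vehicle control viability.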

How did the IC50 (second compound 0.00316 µM) turn out when `CC(C)n1nc(-c2ccc3oc(N)nc3c2)c2c(N)ncnc21` + COc1c(OCCCN2CCOCC2)ccc2c3n(c(=NC(=O)c4cnc(N)nc4)nc12)CCN3 was run?
Its IC50 is 59.1 nM.

What about the IC50 (second compound 0.01 µM) of the same molecule?
The IC50 was 48.8 nM.

And the IC50 (second compound 0.0316 µM)?
Its IC50 is 18 nM.

What about the IC50 (second compound 0.1 µM) of the same molecule?
Its IC50 is under 0.316 nM.

And the IC50 (second compound 0.316 µM)?
The IC50 was under 0.316 nM.

And the IC50 (second compound 1 µM)?
The IC50 was under 0.316 nM.

And the viability, T/C (second compound 0.00316 µM, first compound 0.000316 µM)?
Its viability, T/C is 94.2%.

What about the viability, T/C (second compound 0.00316 µM, first compound 0.001 µM) of the same molecule?
Its viability, T/C is 99%.

And the viability, T/C (second compound 0.00316 µM, first compound 0.00316 µM)?
Its viability, T/C is 97.3%.

What about the viability, T/C (second compound 0.00316 µM, first compound 0.01 µM) of the same molecule?
Its viability, T/C is 84%.

What about the viability, T/C [1] of the same molecule?
The viability, T/C was 62.8%.

What about the viability, T/C [2] of the same molecule?
The viability, T/C was 39.6%.

What about the viability, T/C (second compound 0.01 µM, first compound 0.000316 µM) of the same molecule?
Its viability, T/C is 98.1%.

And the viability, T/C (second compound 0.01 µM, first compound 0.001 µM)?
The viability, T/C was 83.9%.

And the viability, T/C (second compound 0.01 µM, first compound 0.00316 µM)?
The viability, T/C was 83.3%.

And the viability, T/C (second compound 0.01 µM, first compound 0.01 µM)?
The viability, T/C was 74%.

What about the viability, T/C [3] of the same molecule?
The viability, T/C was 59.6%.

What about the viability, T/C [4] of the same molecule?
Its viability, T/C is 35.4%.

What about the viability, T/C (second compound 0.0316 µM, first compound 0.000316 µM) of the same molecule?
Its viability, T/C is 72.1%.

What about the viability, T/C (second compound 0.0316 µM, first compound 0.001 µM) of the same molecule?
The viability, T/C was 72.2%.

What about the viability, T/C (second compound 0.0316 µM, first compound 0.00316 µM) of the same molecule?
The viability, T/C was 85.8%.

And the viability, T/C (second compound 0.0316 µM, first compound 0.01 µM)?
Its viability, T/C is 52%.

And the viability, T/C [5]?
Its viability, T/C is 44.3%.

What about the viability, T/C [6] of the same molecule?
The viability, T/C was 23.6%.

What about the viability, T/C (second compound 0.1 µM, first compound 0.000316 µM) of the same molecule?
Its viability, T/C is 41.4%.

What about the viability, T/C (second compound 0.1 µM, first compound 0.001 µM) of the same molecule?
The viability, T/C was 39.7%.

What about the viability, T/C (second compound 0.1 µM, first compound 0.00316 µM) of the same molecule?
Its viability, T/C is 40.2%.

What about the viability, T/C (second compound 0.1 µM, first compound 0.01 µM) of the same molecule?
Its viability, T/C is 31.8%.

And the viability, T/C [7]?
Its viability, T/C is 23.9%.

What about the viability, T/C [8] of the same molecule?
Its viability, T/C is 13.4%.

And the viability, T/C (second compound 0.316 µM, first compound 0.000316 µM)?
Its viability, T/C is 17.7%.

And the viability, T/C (second compound 0.316 µM, first compound 0.001 µM)?
The viability, T/C was 17.5%.

What about the viability, T/C (second compound 0.316 µM, first compound 0.00316 µM) of the same molecule?
Its viability, T/C is 15.3%.

And the viability, T/C (second compound 0.316 µM, first compound 0.01 µM)?
The viability, T/C was 13.8%.

And the viability, T/C [9]?
The viability, T/C was 14.3%.

And the viability, T/C [10]?
The viability, T/C was 8.89%.

And the viability, T/C (second compound 1 µM, first compound 0.000316 µM)?
The viability, T/C was 13.2%.

What about the viability, T/C (second compound 1 µM, first compound 0.001 µM) of the same molecule?
The viability, T/C was 10.9%.

And the viability, T/C (second compound 1 µM, first compound 0.00316 µM)?
Its viability, T/C is 10.3%.

What about the viability, T/C (second compound 1 µM, first compound 0.01 µM) of the same molecule?
The viability, T/C was 12.2%.

And the viability, T/C [11]?
Its viability, T/C is 12.9%.

And the viability, T/C [12]?
The viability, T/C was 8.5%.

What does the source list for `CCCS(=O)(=O)Nc1ccc(F)c(C(=O)c2c[nH]c3ncc(-c4ccc(Cl)cc4)cc23)c1F` + COc1c(OCCCN2CCOCC2)ccc2c3n(c(=NC(=O)c4cnc(N)nc4)nc12)CCN3?
IC50 (second compound 0.00316 µM): 6100 nM; IC50 (second compound 0.01 µM): 5990 nM; IC50 (second compound 0.0316 µM): 5160 nM; IC50 (second compound 0.1 µM): 110 nM; IC50 (second compound 0.316 µM): < 31.6 nM; IC50 (second compound 1 µM): < 31.6 nM; viability, T/C [1]: 109%; viability, T/C [2]: 98.6%; viability, T/C [13]: 99.6%; viability, T/C [14]: 92.3%; viability, T/C [15]: 95.5%; viability, T/C [16]: 15.7%; viability, T/C [3]: 89.1%; viability, T/C [4]: 96.2%; viability, T/C [17]: 103%; viability, T/C [18]: 98.6%; viability, T/C [19]: 97.1%; viability, T/C [20]: 12.5%; viability, T/C [5]: 68.7%; viability, T/C [6]: 94.1%; viability, T/C [21]: 86.5%; viability, T/C [22]: 83.8%; viability, T/C [23]: 78.1%; viability, T/C [24]: 12%; viability, T/C [7]: 47.9%; viability, T/C [8]: 54.2%; viability, T/C [25]: 48.4%; viability, T/C [26]: 41.4%; viability, T/C [27]: 33.9%; viability, T/C [28]: 15.7%; viability, T/C [9]: 16.7%; viability, T/C [10]: 18.7%; viability, T/C [29]: 19.1%; viability, T/C [30]: 20.5%; viability, T/C [31]: 22.4%; viability, T/C [32]: 12.7%; viability, T/C [11]: 13.2%; viability, T/C [12]: 12.4%; viability, T/C [33]: 14.6%; viability, T/C [34]: 14.3%; viability, T/C [35]: 19.8%; viability, T/C [36]: 9.24%

Which results are given for `CNC(=O)c1ccc(N2C(=S)N(c3ccc(C#N)c(C(F)(F)F)c3)C(=O)C2(C)C)cc1F` + COc1c(OCCCN2CCOCC2)ccc2c3n(c(=NC(=O)c4cnc(N)nc4)nc12)CCN3?
IC50 (second compound 0.00316 µM): > 10000 nM; IC50 (second compound 0.01 µM): > 10000 nM; IC50 (second compound 0.0316 µM): > 10000 nM; IC50 (second compound 0.1 µM): < 31.6 nM; IC50 (second compound 0.316 µM): < 31.6 nM; IC50 (second compound 1 µM): < 31.6 nM; viability, T/C [1]: 98.3%; viability, T/C [2]: 117%; viability, T/C [13]: 102%; viability, T/C [14]: 112%; viability, T/C [15]: 99.8%; viability, T/C [16]: 87.1%; viability, T/C [3]: 102%; viability, T/C [4]: 100%; viability, T/C [17]: 97.3%; viability, T/C [18]: 115%; viability, T/C [19]: 94.7%; viability, T/C [20]: 96.7%; viability, T/C [5]: 73.3%; viability, T/C [6]: 79.2%; viability, T/C [21]: 73.2%; viability, T/C [22]: 71.3%; viability, T/C [23]: 74.1%; viability, T/C [24]: 62.8%; viability, T/C [7]: 37.3%; viability, T/C [8]: 42.9%; viability, T/C [25]: 39.7%; viability, T/C [26]: 40.8%; viability, T/C [27]: 34.9%; viability, T/C [28]: 31.8%; viability, T/C [9]: 15.5%; viability, T/C [10]: 16.6%; viability, T/C [29]: 13.9%; viability, T/C [30]: 13.4%; viability, T/C [31]: 14.8%; viability, T/C [32]: 12.3%; viability, T/C [11]: 11.8%; viability, T/C [12]: 9.64%; viability, T/C [33]: 11.3%; viability, T/C [34]: 9.53%; viability, T/C [35]: 9.76%; viability, T/C [36]: 8.76%
